US8455523B2, “Compositions and methods for treating hyperlipidemias” (The Research Foundation of State University of New York, priority 2010, dated 2013)

Key:
mice fed western diet = assay: MTPi with or without pioglitazone or lovastatin in mice fed western diet for five weeks (Example III); conditions: for cellular cholesteryl esters (liver) / hepatic free cholesterol / hepatic triglycerides: MTPi vs control
Protocol: FIGS. 7a and 7b. Mice were fed western diet for five weeks. […] Livers were collected and used to measure MTP activity (A), triglyceride (B), total cholesterol (C), free cholesterol (D), esterified cholesterol (E) and free fatty acids (F).
FIGS. 8a and 8b. Plasma was obtained from animals described in FIG. 7 and used to measure triglyceride (A) and cholesterol (B) in apoB-lipoproteins. In addition, HDL cholesterol (C), plasma free fatty acids (D), ALT (E), and AST (F) levels were measured.

[1] = test system: C57Bl/6J mice fed either a chow or western diet; assay: MTP inhibitor BMS-212122-01 with or without lovastatin, pioglitazone or PBA in chow or western diet fed C57Bl/6J mice; format: in vivo; conditions: for hepatic triglycerides: MTPi 1 mg/kg/day one week, lovastatin 50 or pioglitazone 25 mg/kg/day added to MTPi; for hepatic free cholesterol: lovastatin or pioglitazone co-administered with MTPi; for Hepatic free fatty acids (FFA): lovastatin or pioglitazone with MTPi; for hepatic total and free cholesterol / hepatic triglycerides compared to western diet fed controls / plasma lipids: drug alone, one week; for plasma ALT/AST levels: lovastatin added to MTPi
Protocol: FIG. 13. Age matched wildtype C57/Bl6J animals chow fed animals were treated with DMSO (control) or MTP inhibitor (MTPi) for one week. […] All drugs were administered by oral gavage. Animals were sacrificed on day 7 and plasma and livers were harvested and analyzed. * represent comparison to DMSO control; # represent comparisons to WD control; @ represent comparisons to WD MTP inhibitor treatment.
FIG. 18. Age matched wildtype C57/BL6J were fed WD for one month and were administered MTPi, or 4-phenylbutyric acid (PBA) everyday for one week. All drugs were administered by oral gavage. Animals were sacrificed on day 7 and livers were harvested. * represent comparison DMSO control; # represent comparisons to HF MTP inhibitor treated animals.
C57BL/6J Black 6 mice (stock number 000664) were obtained from Jackson Laboratory and used for chow fed and western diet fed experiments. MTP inhibitor (BMS […]) (1 mg/kg/day), Lovastatin, Pioglitazone (Toronto Research Chemicals P471000) (25 mg/kg/day) and 4-phenylbutyric acid (Calbiochem 820986) (1 g/kg/day) were administered by oral gavage. Chow fed animals were treated for one week with either DMSO or MTP inhibitor. Western diet fed animals were fed DMSO, MTP inhibitor, Pioglitazone, MTP inhibitor+Pioglitazone, Lovastatin, MTP inhibitor+Lovastatin, 4-phenylbutyric acid, and MTP inhibitor+4-phenylbutyric acid. Chow fed animals were also injected with either PBS or Tunicamycin and animals were sacrificed at 4, 8, 12 and 24 hours.
(§1) All animals were kept in 07:00-19:00 h lighting schedule. […] Food was withdrawn 16 h before the sacrifice of the mice. On the day of the experiment, mice were anesthetized and blood was collected from the heart. Liver was collected, washed in ice-cold PBS, cut into small pieces and used for lipid extraction, histological staining, to measure different protein activities/quantities and for mRNA analysis. Lipids were extracted from the tissue homogenates following the Bligh and Dyer method. Triglyceride (Infinity TM Triglyceride, TR22421) and total cholesterol (Infinity TM Cholesterol, TR13421) levels in the tissues were determined using commercial kits (Thermo Scientific). Free cholesterol and free fatty acid levels were measured using kits from Wako Chemicals (Germany). Esterified cholesterol was calculated by subtracting the free cholesterol from the total cholesterol.
We next studied the effects of chemical inhibition of MTP in C57Bl/6J mice fed either a chow or western diet (WD) for 5 weeks. Chow fed animals were orally gavaged with either DMSO or MTP inhibitor BMS-212122-01 (MTPi; 1 mg/kg/day) for one week. WD fed animals were treated with DMSO, MTP inhibitor with or without lovastatin (50 mg/kg/day) or pioglitazone (25 mg/kg/day) daily by oral gavage for one week.

Reversa mice = conditions: for plasma cholesterol / plasma triglycerides: MTP deficient (plpC) Reversa mice, oral 30 days
Protocol: FIG. 11. Reversa animals were injected with plpC every other day for one week. Lovastatin, T-090317 and WY14643 were administered by oral gavage everyday for 30 days after the first injection. Animals were sacrificed on day 30 and plasma and livers were harvested and analyzed. * represent comparison to PBS injected animals and # represent comparisons to plpC control.
Animals: Mttp^tm2Sgy LdIr^tm1Her Apob^tm2Sgy Tg(Mx1-cre)1Cgn/J mice (Reversa) (stock number 004192) were obtained from Jackson Laboratories. Male reversa mice were used to study the effect of mttp gene deletion on plasma and tissue lipids. These animals are transgenic for apolipoprotein B, LDLR^−/− and floxed at exon 1 of the mttp locus. In addition, these mice express cre recombinase under the control of the Mx1 promoter, which is induced after intraperitoneal injection of polyinosinic polycytidylic ribonucleic acid (plpC—Sigma) in the liver, spleen and intestine. Injection of plpC activates the cre recombinase and deletes the mttp gene in the liver and intestines. Reversa mice were injected with either PBS or plpC. Mice injected with plpC were orally gavaged with DMSO (Sigma-Aldrich D8418), DMSO+Lovastatin (50 mg/kg/day) (Calbiochem 438186), DMSO+T0901317 (50 mg/kg/day) (Calbiochem 575310), or DMSO+WY14643 (10 mg/kg/day) (Calbiochem 681725). Mice injected with plpC were also injected with either PBS or Ω-3 fatty acids (SUNY Downstate Medical Center). All animals were given supplemental treatments for 30 days.
as §1
To determine whether accumulation of hepatic triglyceride and free cholesterol is related to increases in plasma AST/ALT, we sought to reduce these lipids using different chemical compounds of known physiologic effects. Mice injected with plpC were orally gavaged with DMSO, DMSO+Lovastatin (50 mg/kg/day), DMSO+T0901317 (50 mg/kg/day), or DMSO+WY14643 (10 mg/kg/day). Lovastatin (Lova), an HMG-CoA reductase (HMGR) inhibitor, and T0901317 (T0), an LXR agonist, are expected to decrease hepatic free cholesterol by inhibiting endogenous cholesterol synthesis and increasing cholesterol efflux, respectively. WY14643 (WY), a PPARα agonist, increases β-oxidation of fatty acids and lowers hepatic triglycerides.
To evaluate the efficacy of Ω-3 FA in reducing hepatic triglyceride, plpC injected mice were treated with intraperitoneal injection of Ω-3 FA (3 mg/kg/2 day) or Ω-3 FA and Lova.

[2] = WD five weeks, treatment in last week, co-drugs with MTPi
[3] = plpC-injected Reversa mice, Lova 50, T0 50, WY 10 mg/kg/day oral or Ω-3 FA 3 mg/kg/2 day ip, vs plpC control

Row | Structure (SMILES) | cellular cholesteryl esters (liver) (mice fed western diet; [2]) | hepatic free cholesterol (mice fed western diet; [2]) | hepatic triglycerides (mice fed western diet; [2]) | plasma HDL cholesterol (mice fed western diet; [2]) | hepatic free cholesterol ([1]; MTPi one week) | Hepatic free fatty acids (FFA) ([1]; MTPi one week) | hepatic total and free cholesterol ([1]; WD fed) | hepatic triglycerides compared to western diet fed controls ([1]; WD fed) | plasma lipids ([1]; WD fed) | plasma cholesterol (Reversa mice) | plasma triglycerides (Reversa mice) | hepatic free and total cholesterol (Reversa mice; [3]) | other results
1 | CCc1ccc(CCOc2ccc(CC3SC(=O)NC3=O)cc2)nc1 (racemic) [pioglitazone, (RS)-5-(4-[2-(5-ethylpyridin-2-yl)ethoxy]benzyl)thiazolidine-2,4-dione] | increased | not seen | avoided increases | slightly increased | reduced | resistant | decreased | slightly lower | no effect | – | – | – | AST/ALT levels (plasma) (mice fed western diet; mouse, in vivo): significantly lower; hepatic triglycerides [1]: abrogated; rise in intestinal free cholesterol seen with MTPi alone ([1]; WD fed, in conjunction with MTPi): attenuated; Plasma FFA levels ([1]; high fat feeding, MTPi one week, co-drugs with MTPi): completely abrogated
2 | CC[C@H](C)C(=O)O[C@H]1C[C@@H](C)C=C2C=C[C@H](C)[C@H](CC[C@@H]3C[C@@H](O)CC(=O)O3)[C@H]21 [lovastatin] | increased | not seen | not affected | slightly increased | reduced | resistant | decreased | no effect | no effect | significantly reduced | no effect | significantly reduced | AST/ALT levels (plasma) (mice fed western diet; [2]): significantly lower; plasma free fatty acids (mice fed western diet; [2]): not affected; hepatic triglyceride (Reversa mice; [3]): no effect; hepatic triglycerides ([1]; listed as Lovastatin): without affecting; plasma ALT/AST levels ([1]; MTPi one week): lowered; plasma ALT/AST levels ([1]; MTPi one week, listed as Lovastatin): abrogated increases; Cardiac tissue lipid profiles ([1]; WD fed, MTPi ± pioglitazone or lovastatin): no changes; intestinal lipids ([1]; WD fed, with MTPi): no effect
3 | Cc1cccc(Nc2cc(Cl)nc(SCC(=O)O)n2)c1C [WY14643] | – | – | – | – | – | – | – | – | – | no effect | no effect | no effect | –
